Test results as given in article PMC11667226 (Theranostics, 2025).
Marks after values point to notes of the source that are not given here. Non-standard residues stand in square brackets, D forms with d. Residues, ends and D or L forms follow the SMILES beside them. *: point of attachment. X1 = CC1(C)C(=CC=CC=CC=CC2=[N+](CCCCCC(=O)*)c3ccc4ccccc4c3C2(C)C)N(CCCCS(=O)(=O)[O-])c2ccc3ccccc3c21; Cha = N[C@@H](CC1CCCCC1)C(=O)O

Key:
[1] = system: oral and oropharyngeal squamous cell carcinoma (OSCC, OPSCC); assay: Sensitivity of FG001 optical imaging for tumor detection, verified by histology; format: in vivo, human; conditions: 16 patients with OSCC/OPSCC; FG001 36, 16 or 4 mg i.v. the evening prior to surgery; 11 optically guided biopsies and 5 cross-section samples
Protocol: For 11 out of 16 patients, a single biopsy was sampled from the resected tumor specimen ex-vivo on the back-table from a region with a bright fluorescence presented by the imaging system. For the remaining 5 patients, the tumors were cross-sectioned for detailed optical imaging and histopathological processing (see next section). The back-table imaging was performed with the same settings (Image profile: NIR_highcontrast or NIR_contrast, excitation laser: 805 nm) and with no other light sources, always with a perpendicular angle to the table, and a camera-to-tumor distance of 20 centimeters. The biopsies were taken with biopsy-punch-forceps, hereafter formalin (4%) fixed, paraffin-embedded (i.e. FFPE), and evaluated with histopathological assessment by a pathologist for the presence of cancer tissue - concluding on cancer-positive or negative.
For 5 out of the 16 patients, the resected tumor specimens were cut in half, sliced at the OR, and imaged with the Elevision® imaging system. The specimens underwent routine pathologic processing at the Department of Pathology. […] To evaluate the overlap between fluorescence signal from FG001, uPAR-expression, and tumor tissue, the cryosections were first fluorescently scanned with an Amersham Typhoon^TM scanner from Cytiva and, thereafter, stained using immunohistochemistry for uPAR and Cytokeratin (CK), and hematoxylin and eosin (H&E) stained. […]

[2] = system: oral and oropharyngeal squamous cell carcinoma (OSCC, OPSCC); assay: Intraoperative near-infrared optical imaging: tumor-to-background ratio and absolute intensities (Elevision); format: in vivo, human; conditions: for TBR (mean (range)): preoperative NIR image, max tumor ROI / mean of 3 background ROIs, Elevision, 805 nm
Protocol: All patients were treated surgically according to the national guidelines. The primary investigator (PI) was part of the surgical team in all procedures. A surgical robot system (DaVinci Si, Intuitive) was used for TORS in the two patients with OPSCC. The surgeons were not allowed to resect tissue based on intraoperative detected fluorescence signal but complied with standard of care. Depending on the clinical TNM staging (based on clinical examination, ultrasonography examination of the neck, and MRI or CT scans), either sentinel lymph node biopsy (using 99^mTc-nanocoll) or neck dissection was performed for neck management. Post-surgical (chemo)radiation was prescribed according to national guidelines at a multidisciplinary conference. The pre-, intraoperative, and ex-vivo optical images were obtained using the open-field imaging system Elevision® model VS3 Iridium-Visionsense Infrared (IR) Fluorescence, Vision System (Medtronics, USA). Image profile: NIR_highcontrast or NIR_contrast, excitation laser: 805 nm. The Elevision IR system generates real-time optical imaging merged with the color video recording on a viewer screen. The intensity-dependent multi-color NIR overlay was presented in parallel with white-light and NIR grayscale images. The camera head was mounted on a maneuverable arm over the surgical field with sterile draping. The preferred camera-to-tumor distance was 20-40 centimeters, but the system also allows positioning at closer or longer distances to areas of interest. For optimal imaging, all other light sources in the OR were switched off and window blinds were closed. The imaging system itself provides powerful white light illumination of the surgical field when imaging is performed.
All images and videos were stored in JPG- and mp4-file format. The following images were captured for all 16 patients who completed the trial: 1) Preoperative images of the tumor. 2) Intraoperative images of the tumor and metastatic lymph nodes. 3) Images of the surgical cavity (i.e., tumor bed) after tumor resection. 4) Ex-vivo images of the resected tumor specimen on the back-table, see Figure 2.
For imaging analysis, the TBR was calculated as the maximum fluorescence intensity of the tumor region of interest (ROI) divided by the mean fluorescence intensity of 3 background ROIs on a preoperative NIR image by use of an in-house designed Python-based annotation tool. The tumor ROIs were drawn based on information from intraoperative clinical observations, and preoperative white-light and NIR images. Background ROIs were defined within the soft tissues adjacent to the tumor. The absolute numeric intensities were obtained by adjusting the fluorescence intensity for the specific gain values applied by the imaging system.

[3] = system: oral and oropharyngeal squamous cell carcinoma (OSCC, OPSCC); assay: Longitudinal preoperative transoral imaging of the tumors; format: in vivo, human
Protocol: For 3 out of the 16 patients, longitudinal preoperative imaging of their tumors was captured during the period before surgery. […] Minor deviations from the protocol requirements were due to prioritization of the patients' night sleep before surgery - therefore, no images were taken in the timespan between 8 and 14 hrs post-injection. All longitudinal images were captured with the same camera-to-tumor distance (app. 25-35 cm) in a darkened room. The TBR value was calculated for all time points and plotted as a function of time, see Figure 4 for a case example.

[4] = molecular target: T1, uPAR (Homo sapiens, UniProt Q03405); assay: Morphological co-localization between FG001 signal, tumor tissue and uPAR expression (Typhoon/Odyssey scan, IHC, H&E)
T1 construct: from tissue
T1 sequence (Q03405 23-335): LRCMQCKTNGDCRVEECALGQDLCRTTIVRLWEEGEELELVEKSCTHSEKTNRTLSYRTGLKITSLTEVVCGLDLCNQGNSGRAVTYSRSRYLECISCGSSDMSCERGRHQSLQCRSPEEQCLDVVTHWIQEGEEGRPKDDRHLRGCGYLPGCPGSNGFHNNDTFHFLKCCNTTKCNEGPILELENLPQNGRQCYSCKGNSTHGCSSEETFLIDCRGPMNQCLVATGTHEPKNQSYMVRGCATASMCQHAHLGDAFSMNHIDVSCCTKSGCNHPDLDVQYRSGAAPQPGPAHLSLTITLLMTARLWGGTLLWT
Excerpt: For 5 out of the 16 patients, the resected tumor specimens were cut in half, sliced at the OR, and imaged with the Elevision® imaging system. The specimens underwent routine pathologic processing at the Department of Pathology. The slices were frozen with a Milestone PrestoCHILL cryoembedder/freezer and, cut into 8 µm tissue slices with a Leica® CM1860 Cryostat and placed on glass slides. To evaluate the overlap between fluorescence signal from FG001, uPAR-expression, and tumor tissue, the cryosections were first fluorescently scanned with an Amersham Typhoon^TM scanner from Cytiva and, thereafter, stained using immunohistochemistry for uPAR and Cytokeratin (CK), and hematoxylin and eosin (H&E) stained. The Typhoon^TM scanner settings were PMT: 350-500 V and excitation wavelength: 785 nm. The immunohistochemical staining for uPAR was performed with the antibody GTX100467 (Gentex, USA), and Cytokeratin with M351529-2 Dako (Agilent). The H&E stain was performed according to standard practice. All tissue slides were scanned with the high-resolution AxioScan 7 (Zeiss, Germany). […]
The different stained tissue sections were aligned using the BigWarp plugin in Fiji (NIH, open-source version: 1.54f) software. A pathologist delineated the tumors, and the fluorescence imaging generated from the Typhoon scanner was overlayed on the HE stains using ImageJ (NIH, open source), (see Figure 3M).

[5] = 40 patients with malignant glioblastoma, 1 to 48 mg; ref [15],[33]; cited from earlier work

Structure (SMILES): CC(C)C[C@H](NC(=O)[C@H](Cc1ccc(O)cc1)NC(=O)[C@@H](CCCNC(=N)N)NC(=O)[C@@H](CO)NC(=O)[C@H](Cc1ccccc1)NC(=O)[C@H](CC1CCCCC1)NC(=O)[C@H](CC(=O)O)NC(=O)[C@H](CCC(=O)O)NC(=O)[C@H](CCC(=O)O)NC(=O)CCCCC[N+]1=C(C=CC=CC=CC=C2N(CCCCS(=O)(=O)[O-])c3ccc4ccccc4c3C2(C)C)C(C)(C)c2c1ccc1ccccc21)C(=O)N[C@@H](Cc1c[nH]c2ccccc12)C(=O)N[C@@H](CO)C(=O)O [FG001, ICG-Glu-Glu-AE105] (X1-EED[Cha]F[dS][dR]YLWS-OH; N-terminus and C-terminus assumed)
- Sensitivity for tumor detection verified by histology [1]: 100%
- TBR (mean (range)) ([2]; FG001 4 mg i.v., n = 4 completed): 3.07 (2.30 - 3.48)*
- TBR (mean (range)) ([2]; FG001 16 mg i.v., n = 8): 2.91 (2.02 - 3.95)
- TBR (mean (range)) ([2]; FG001 36 mg i.v., n = 4): 3.08 (2.68 - 3.46)
- TBR (contrast for demarcation of tumors), consistently ([2]; all patients, even at the lowest dose): above 2
- Time post-injection after which tumor-specific signals could be detected ([3]; FG001 16 mg i.v., three awake patients, transoral): 2 h
- TBR in longitudinal imaging ([3]; FG001 16 mg i.v., three awake patients, transoral, from 2 hrs until 19 hrs post-injection): above 2
- Window for drug administration prior to surgery ([3]; indicated by the longitudinal data for tumor imaging): 2 to 19 h
- Optical signal in resected cancer tissues after formalin fixation and paraffin embedding ([4]; days following surgery): preserved
- Co-localization between uPAR-expression and FG001 fluorescence signal ([4]; microscopic fluorescence imaging, tumor cross-sections of 5 patients across the 3 dose cohorts): high level of co-localization
- Grade I drug-related adverse events, number [5]: 3
- Grade II drug-related adverse events, number [5]: 1
- Safety and tolerability [5]: safe and well-tolerated
